Patent publication US11510869B2, “Medical devices including medicaments and methods of making and using same including enhancing comfort, enhancing drug penetration, and treatment of myopia” (priority 2010, dated 2022)
Entries after “also recorded” stand apart in the source; their conditions may differ. Where two headings read alike, the source gives them in different places.

Legend:
myopia progression = settings: cited from earlier work; for Control of myopia progression / Side effects: 0.01% atropine eye drops
[1] = at therapeutic doses; cited from earlier work
[2] = Ink testing of HA loaded ink; assay type: physicochemical
Description: Required amount of HA was directly added in an ink, followed by sonication for 15 minutes, thus providing HA in a polymer matrix.
In case of HA, which was HEMA monomer ink insoluble, its particulate form (without processing) is loaded in ink along with Tween 20, followed by sonication for 5 to 60 minutes.
The following table provides results of ink testing.

[3] = HA loaded ink, direct HA loading, 2% drug loading

Compound: CN1[C@@H]2CC[C@H]1C[C@@H](OC(=O)C(CO)c1ccccc1)C2 (stereo partly drawn) [Atropine]
- Control of myopia progression (myopia progression): effective in reducing the progression of myopia
- Side effects (myopia progression): cycloplegia; also recorded: Photophobia; also recorded: elevation of intraocular pressures; also recorded: Risk of angle closure glaucoma
- Control of myopia progression (myopia progression; listed as atropine): ability to control the progress of myopia; also recorded: effective in controlling myopia progression
- Side effects (myopia progression; listed as atropine): limited side effects; also recorded: minimal side effects
- Effect of discontinuation of atropine treatment (myopia progression; in some cases): rebound of myopia progression
- Progression of myopia (myopia progression; low dose atropine drops in combination with multifocal glasses): slow the progression of myopia

Compound: CCNC(=O)CCC/C=C\C[C@@H]1[C@@H](/C=C/[C@@H](O)CCc2ccccc2)[C@H](O)C[C@@H]1O [Bimatoprost]
- Systemic or local toxicity [1]: minimal systemic or local toxicity

Compound: Hyaluronic Acid [Hyaluronic Acid (HA)]
- EST (mN/m) [2, 3]: 36.03 mN/m
- Particle/globule size (nm) [2, 3]: 1227 nm
- Viscosity (c.p.) [2, 3]: 12.6 c.p.
- pH [2, 3]: 6
- Solubility in HEMA monomer ink ([2]; HEMA monomer ink): insoluble
